Experimental data reported in US8609708B2 (Human BioMolecular Research Institute, priority 2003, dated 2013).
Like-named read-outs stand apart in the source and are kept apart here.

Columns and labels:
human CYP2A6 [1] = target: T1, human CYP2A6 (Homo sapiens (Human), UniProt P11509)
mouse CYP2A5 = mouse CYP2A5 (Mus musculus (Mouse), UniProt P20852); assay: Inhibition of mouse CYP2A5; assay type: biochemical; conditions: read-out: IC50 mCYP2A5
[2] = Mouse liver microsome stability assay; conditions: mouse liver microsomes
Experimental: The residue was reconstituted in methanol (200 μL), centrifuged at 13,000 rpm for 5 min and the supernatant was analyzed by high-performance liquid chromatography with an Axxi-chrom (straight-phase) silica column (4.6 mm×250 mm, 5 μm) or with a Supelco (reverse-phase) HS F5 pentafluorophenyl column (4.6 mm×250 mm, 5 μm).

CYP2C9 = CYP2C9 (Homo sapiens (Human), UniProt P11712); assay: CYP2C9 Vivid blue substrate O-dealkylation inhibition; assay type: biochemical
Sequence of CYP2C9 (P11712 whole entry): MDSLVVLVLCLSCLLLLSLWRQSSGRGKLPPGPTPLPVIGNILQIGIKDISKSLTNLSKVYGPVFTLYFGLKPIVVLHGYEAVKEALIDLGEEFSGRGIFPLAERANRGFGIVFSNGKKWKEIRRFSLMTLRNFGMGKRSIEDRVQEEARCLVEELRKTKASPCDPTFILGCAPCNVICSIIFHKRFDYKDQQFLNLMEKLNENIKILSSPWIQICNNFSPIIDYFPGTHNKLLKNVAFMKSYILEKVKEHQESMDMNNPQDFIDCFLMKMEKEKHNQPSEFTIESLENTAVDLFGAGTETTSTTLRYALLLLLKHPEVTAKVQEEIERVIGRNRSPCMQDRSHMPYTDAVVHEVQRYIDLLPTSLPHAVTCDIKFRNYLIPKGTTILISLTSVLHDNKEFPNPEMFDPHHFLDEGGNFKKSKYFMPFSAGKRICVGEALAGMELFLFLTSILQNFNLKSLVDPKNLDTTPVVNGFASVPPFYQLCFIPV

CYP2C19 = CYP2C19 (Homo sapiens (Human), UniProt P33261); assay: CYP2C19 Vivid blue substrate O-dealkylation inhibition; assay type: biochemical
Sequence of CYP2C19 (P33261 whole entry, the tested form may be a part): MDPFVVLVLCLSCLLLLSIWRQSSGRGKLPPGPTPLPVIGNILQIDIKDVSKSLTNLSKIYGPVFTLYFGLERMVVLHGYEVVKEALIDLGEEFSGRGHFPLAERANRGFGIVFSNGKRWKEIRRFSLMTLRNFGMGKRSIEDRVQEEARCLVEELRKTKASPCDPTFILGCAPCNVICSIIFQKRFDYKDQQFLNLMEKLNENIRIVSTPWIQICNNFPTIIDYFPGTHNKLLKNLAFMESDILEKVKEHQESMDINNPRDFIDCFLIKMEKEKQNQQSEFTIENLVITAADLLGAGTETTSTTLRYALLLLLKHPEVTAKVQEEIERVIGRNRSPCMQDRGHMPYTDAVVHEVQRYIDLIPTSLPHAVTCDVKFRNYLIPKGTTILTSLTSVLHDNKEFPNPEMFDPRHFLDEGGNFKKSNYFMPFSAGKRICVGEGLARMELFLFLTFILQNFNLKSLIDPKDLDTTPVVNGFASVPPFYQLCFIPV

P450 2A6dH [3] = target: T2, P450 2A6dH (Homo sapiens (Human), UniProt P11509, INS494HHHH); assay: Difference spectra of test compounds with N-terminal truncated CYP2A6; conditions: difference spectrum with truncated CYP2A6
T2 sequence (P11509 other isoform, or with tags, fused parts or gaps 1-28 replaced by MAKKTS/ins HHHH behind 494): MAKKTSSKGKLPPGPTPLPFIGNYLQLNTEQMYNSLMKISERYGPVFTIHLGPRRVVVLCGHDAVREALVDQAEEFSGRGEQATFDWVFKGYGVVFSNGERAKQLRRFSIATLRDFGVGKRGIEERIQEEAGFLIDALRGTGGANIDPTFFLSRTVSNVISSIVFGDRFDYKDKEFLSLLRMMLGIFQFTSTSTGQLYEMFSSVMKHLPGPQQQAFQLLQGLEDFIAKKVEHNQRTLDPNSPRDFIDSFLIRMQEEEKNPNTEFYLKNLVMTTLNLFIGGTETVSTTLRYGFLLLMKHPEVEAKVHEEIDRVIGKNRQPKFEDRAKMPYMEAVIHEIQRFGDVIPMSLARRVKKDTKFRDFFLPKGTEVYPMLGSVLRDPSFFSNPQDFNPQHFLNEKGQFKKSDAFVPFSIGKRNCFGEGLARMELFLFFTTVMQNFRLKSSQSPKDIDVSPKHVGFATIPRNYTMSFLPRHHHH
Experimental: (§3) Subsequently, test compound (in 100% ethanol, 10 μM) was added to both the cuvettes. The maximal ethanol concentration used was 2%. The difference spectra were obtained after the system reached equilibrium (3 min). All spectra were recorded at 25° C.

CYP3A4 = CYP3A4 (Homo sapiens (Human), UniProt P08684); assay: in vitro
Sequence of CYP3A4 (P08684 whole entry): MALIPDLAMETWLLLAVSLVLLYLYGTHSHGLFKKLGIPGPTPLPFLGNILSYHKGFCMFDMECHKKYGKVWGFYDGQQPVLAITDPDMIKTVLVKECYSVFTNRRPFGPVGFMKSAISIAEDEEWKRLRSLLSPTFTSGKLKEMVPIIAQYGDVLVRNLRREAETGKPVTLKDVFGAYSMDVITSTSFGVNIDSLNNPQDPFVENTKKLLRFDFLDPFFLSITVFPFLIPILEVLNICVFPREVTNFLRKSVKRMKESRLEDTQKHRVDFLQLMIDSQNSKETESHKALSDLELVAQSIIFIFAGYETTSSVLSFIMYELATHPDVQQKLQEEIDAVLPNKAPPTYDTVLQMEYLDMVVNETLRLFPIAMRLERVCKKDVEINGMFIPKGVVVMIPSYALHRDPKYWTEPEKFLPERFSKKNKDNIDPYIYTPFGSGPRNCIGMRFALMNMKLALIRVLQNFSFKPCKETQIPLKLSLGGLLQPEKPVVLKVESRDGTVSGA
Experimental: (§1) To gain insight into the selectivity of the synthetic compounds, nicotine, nicotine related alkaloids and nicotine metabolites for inhibition of other CYPs, we examined the major CYP present in human liver (i.e., CYP 3A4). […] A typical incubation mixture ([…] ), 0.5 mM NADP^+, 2.0 mM G6P, 1 U of G6P dehydrogenase, […] inhibitor was added last as to minimize interaction with the protein. After mixing on ice, the reaction was initiated by the addition of substrate and incubated at 37° C. with shaking in air. Organic extracts were injected onto a Hitachi L-7100 system equipped with a Hitachi L-7400 UV detector. Separations were done with an Altex Ultrasphere ODS (4.6 mm×250 mm, 5 μm) column. The analytes were eluted with an isocratic solvent system consisting of water/acetonitrile/methanol (30:10:60, v/v/v) at a flow rate of 1.0 mL/min. […] Quantification of substrate and metabolite was determined from peak areas of the chromatogram and comparison with standard curves. IC50 values were determined as described below.
(§2) To measure CYP3A4 activity, testosterone 6-hydroxylation was determined.

CYP2B6 = CYP2B6 (Homo sapiens (Human), UniProt P20813); assay: CYP2B6 Vivid blue substrate O-dealkylation inhibition; assay type: biochemical
Sequence of CYP2B6 (P20813 whole entry): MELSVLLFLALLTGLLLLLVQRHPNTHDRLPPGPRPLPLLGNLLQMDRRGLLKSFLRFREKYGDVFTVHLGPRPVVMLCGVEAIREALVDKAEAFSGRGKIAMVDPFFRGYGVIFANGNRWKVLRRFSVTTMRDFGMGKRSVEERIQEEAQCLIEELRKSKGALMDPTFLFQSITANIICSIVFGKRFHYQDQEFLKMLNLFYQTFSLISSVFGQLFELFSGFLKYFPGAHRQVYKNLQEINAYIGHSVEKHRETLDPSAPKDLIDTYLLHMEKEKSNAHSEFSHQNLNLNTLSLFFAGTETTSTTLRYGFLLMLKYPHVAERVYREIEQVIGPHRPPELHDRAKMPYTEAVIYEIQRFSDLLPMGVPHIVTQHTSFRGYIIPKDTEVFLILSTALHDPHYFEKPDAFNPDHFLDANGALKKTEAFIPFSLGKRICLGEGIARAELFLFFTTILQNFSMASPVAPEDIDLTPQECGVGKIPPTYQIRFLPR

CYP2E1 = CYP2E1 (Homo sapiens (Human), UniProt P05181); assay: CYP2E1 Vivid blue substrate O-dealkylation inhibition; assay type: biochemical
Sequence of CYP2E1 (P05181 whole entry): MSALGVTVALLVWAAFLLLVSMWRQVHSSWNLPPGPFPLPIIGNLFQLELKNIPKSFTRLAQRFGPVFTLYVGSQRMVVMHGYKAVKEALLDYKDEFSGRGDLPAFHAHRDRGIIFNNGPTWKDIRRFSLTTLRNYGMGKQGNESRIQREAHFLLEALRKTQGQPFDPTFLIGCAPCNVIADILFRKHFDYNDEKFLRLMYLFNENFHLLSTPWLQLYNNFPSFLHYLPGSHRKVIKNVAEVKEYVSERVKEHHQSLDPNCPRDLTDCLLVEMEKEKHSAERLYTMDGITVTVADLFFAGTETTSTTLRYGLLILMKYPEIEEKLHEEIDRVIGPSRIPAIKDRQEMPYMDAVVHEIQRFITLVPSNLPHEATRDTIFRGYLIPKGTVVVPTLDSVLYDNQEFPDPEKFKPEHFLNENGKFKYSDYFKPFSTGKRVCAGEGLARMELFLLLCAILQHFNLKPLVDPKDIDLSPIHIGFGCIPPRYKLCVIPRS

CYP2D6 = CYP2D6 (Homo sapiens (Human), UniProt P10635); assay: CYP2D6 Vivid blue substrate O-dealkylation inhibition; assay type: biochemical
[4] = target: CYP2C9 relative to CYP2A6 (Homo sapiens (Human), UniProt P11712); assay: CYP2C9 Vivid blue substrate O-dealkylation inhibition; assay type: biochemical
Sequence of CYP2C9 relative to CYP2A6 (P11712 whole entry): as the sequence (P11712 whole entry) above

[5] = target: CYP2C19 relative to CYP2A6 (Homo sapiens (Human), UniProt P33261); assay: CYP2C19 Vivid blue substrate O-dealkylation inhibition; assay type: biochemical
Sequence of CYP2C19 relative to CYP2A6 (P33261 whole entry): as the sequence (P33261 whole entry, the tested form may be a part) above

[6] = target: CYP3A4 relative to CYP2A6 (Homo sapiens (Human), UniProt P08684); assay: in vitro; conditions: human; for selectivity ratio at 30 min: pH 7.5
Sequence of CYP3A4 relative to CYP2A6 (P08684 whole entry): as the sequence (P08684 whole entry) above
Experimental: as §1, §2

[7] = target: CYP2B6 relative to CYP2A6 (Homo sapiens (Human), UniProt P20813); assay: CYP2B6 Vivid blue substrate O-dealkylation inhibition; assay type: biochemical
Sequence of CYP2B6 relative to CYP2A6 (P20813 whole entry): as the sequence (P20813 whole entry) above

[8] = target: CYP2E1 relative to CYP2A6 (Homo sapiens (Human), UniProt P05181); assay: CYP2E1 Vivid blue substrate O-dealkylation inhibition; assay type: biochemical
Sequence of CYP2E1 relative to CYP2A6 (P05181 whole entry): as the sequence (P05181 whole entry) above

P450 2A6dH [9] = target: T2, P450 2A6dH
Experimental: as §3

[10] = target: CYP2D6 relative to CYP2A6 (Homo sapiens (Human), UniProt P10635); assay: CYP2D6 Vivid blue substrate O-dealkylation inhibition; assay type: biochemical; conditions: recombinant CYP2D6 BACULOSOMES, pH 8, probe Vivid blue substrate (10 μM), O-dealkylation
human CYP2A6 [11] = target: T1, human CYP2A6; assay: CYP2A6 mediated coumarin 7-hydroxylation inhibition; conditions: for Ki: coumarin 7-hydroxylation; for IC50: read-out: IC50 ± SD 2A6, insect cell microsomes expressing CYP2A6, 0.1M Tris buffer, mean of at least 3 determinations ± SD
[12] = human, recombinant CYP2C19 BACULOSOMES, pH 8, probe Vivid blue substrate (10 μM), O-dealkylation, read-out: 2C19/2A6 selectivity ratio (IC50 CYPX/IC50 CYP2A6)
[13] = human, read-out: 2D6/2A6 selectivity ratio (IC50 CYPX/IC50 CYP2A6)
[14] = insect cell microsomes expressing CYP2C9, 0.2M potassium phosphate buffer, mean of at least 3 determinations ± SD, read-out: IC50 ± SD 2C9
[15] = recombinant CYP2C9 BACULOSOMES, pH 8, probe Vivid blue substrate (10 μM), O-dealkylation, human CYP2C9 versus human CYP2A6, read-out: Selectivity ratio (IC50 CYPX/IC50 CYP2A6) 2C9/2A6
[16] = recombinant CYP2C19 BACULOSOMES, pH 8, probe Vivid blue substrate (10 μM), O-dealkylation, human CYP2C19 versus human CYP2A6, read-out: Selectivity ratio (IC50 CYPX/IC50 CYP2A6) 2C19/2A6
[17] = insect cell microsomes expressing CYP2C19, 0.2M potassium phosphate buffer, mean of at least 3 determinations ± SD, read-out: IC50 ± SD 2C19
[18] = insect cell microsomes expressing CYP2B6, 0.2M potassium phosphate buffer, mean of at least 3 determinations ± SD, read-out: IC50 ± SD 2B6
[19] = recombinant CYP2B6 BACULOSOMES, pH 8, probe Vivid blue substrate (5 μM), O-dealkylation, human CYP2B6 versus human CYP2A6, read-out: Selectivity ratio (IC50 CYPX/IC50 CYP2A6) 2B6/2A6
[20] = apparent Ki from IC50 by Cheng-Prusoff
[21] = recombinant CYP2E1 BACULOSOMES, pH 8, probe Vivid blue substrate (10 μM), O-dealkylation, human CYP2E1 versus human CYP2A6, read-out: Selectivity ratio (IC50 CYPX/IC50 CYP2A6) 2E1/2A6
[22] = insect cell microsomes expressing CYP2E1, 0.2M potassium phosphate buffer, mean of at least 3 determinations ± SD, read-out: IC50 ± SD 2E1
[23] = insect cell microsomes expressing CYP2D6, 0.2M potassium phosphate buffer, mean of at least 3 determinations ± SD, read-out: IC50 ± SD 2D6
[24] = human CYP2D6 versus human CYP2A6, read-out: Selectivity ratio (IC50 CYPX/IC50 CYP2A6) 2D6/2A6
[25] = human, pH 8, 2C9/2A6 selectivity ratio (IC50 CYPX/IC50 CYP2A6)
[26] = human, recombinant CYP2B6 BACULOSOMES, pH 8, probe Vivid blue substrate (5 μM), O-dealkylation, read-out: 2B6/2A6 selectivity ratio (IC50 CYPX/IC50 CYP2A6)

T1 sequence (P11509 whole entry): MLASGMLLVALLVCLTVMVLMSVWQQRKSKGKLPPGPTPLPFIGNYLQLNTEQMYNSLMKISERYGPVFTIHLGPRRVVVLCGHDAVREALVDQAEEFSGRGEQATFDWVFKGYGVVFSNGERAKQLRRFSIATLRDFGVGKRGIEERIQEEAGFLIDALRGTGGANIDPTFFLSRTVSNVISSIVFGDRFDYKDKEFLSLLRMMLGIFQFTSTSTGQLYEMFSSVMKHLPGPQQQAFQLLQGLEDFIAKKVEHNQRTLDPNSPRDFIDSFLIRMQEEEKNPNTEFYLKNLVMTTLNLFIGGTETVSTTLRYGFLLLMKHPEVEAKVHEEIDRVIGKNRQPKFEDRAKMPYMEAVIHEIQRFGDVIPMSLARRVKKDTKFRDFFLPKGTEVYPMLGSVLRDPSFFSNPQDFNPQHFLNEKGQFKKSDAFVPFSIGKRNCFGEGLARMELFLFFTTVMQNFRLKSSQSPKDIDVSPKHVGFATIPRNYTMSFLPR

Cc1cscc1-c1cccnc1 [TD-I-103]
IC50 (human CYP2A6 [1]; human, pH 7.5): 1.85 ± 0.5 µM | IC50 (mouse CYP2A5): 0.75 µM

CN(C)Cc1ccc(-c2cccnc2)o1 [Compound 2c]
MLM t1/2 ([2]; 40 μM test compound): Stable^a | IC50 (CYP2C9; Table 4, unit inferred, read-out: 2C9 IC50 ± SD): 222 ± 16 µM | IC50 (CYP2C19; Table 4, unit inferred, read-out: 2C19 IC50 ± SD): 157 ± 10 µM | binding type (P450 2A6dH [3]): Type II | IC50 (CYP3A4): 294 ± 25 µM | IC50 (CYP2B6; Table 4, unit inferred, read-out: 2B6 IC50 ± SD): > 400 µM | IC50 (CYP2E1; Table 4, unit inferred, read-out: 2E1 IC50 ± SD): > 400 µM | IC50 (CYP2D6; Table 4, unit inferred, read-out: 2D6 IC50 ± SD): 253 ± 35 µM

NCc1ccc(-c2cccnc2)s1 [TD-II-039]
IC50 (mouse CYP2A5): 0.5 µM

Cn1cnc(-c2cccnc2)c1 [Compound 5]
half-life at 40 μM ([2]; mouse, pH 7.4): 8.02 h | selectivity ratio at 40 min ([4]; human, recombinant CYP2C9 BACULOSOMES, pH 8, probe Vivid blue substrate (10 μM), O-dealkylation, read-out: 2C9/2A6 selectivity ratio (IC50 CYPX/IC50 CYP2A6)): 106 | selectivity ratio at 40 min [5, 12]: 163 | selectivity ratio at 30 min [6]: 349 | IC50 (CYP3A4): 262 ± 63 µM | selectivity ratio at 40 min ([7]; human, pH 8): 195 | selectivity ratio at 40 min ([8]; human, pH 8): 5 | IC50 (human CYP2A6 [1]): 0.75 ± 0.1 µM | IC50 (human CYP2A6 [1]; human, pH 7.5): 0.748 ± 0.1 µM | binding type (P450 2A6dH [9]): Type II | λmax (P450 2A6dH [9]): 429 nm | λmin (P450 2A6dH [9]): 409 nm | selectivity ratio at 40 min [10, 13]: 272

Nc1ccc(-c2cccnc2)s1 [Compound 57, 5-(Pyridin-3-yl)thiophen-2-amine]
IC50 (CYP2C9; [14]): 2.1 ± 0.2 µM | selectivity ratio at 40 min [4, 15]: 0.6 | selectivity ratio at 40 min [5, 16]: 0.9 | IC50 (CYP2C19; [17]): 3.2 ± 0.2 µM | selectivity ratio ([6]; pH 7.5, 3A4/2A6 selectivity ratio (IC50 CYPX/IC50 CYP2A6)): 2 | selectivity ratio ([6]; pH 7.5, Selectivity ratio (IC50 CYPX/IC50 CYP2A6) 3A4/2A6): 2 | IC50 (CYP3A4; read-out: IC50 ± SD 3A4, human liver microsomes, 0.05M potassium phosphate buffer, pH 7.5, mean of at least 3 determinations ± SD): 6.3 ± 1.4 µM | IC50 (CYP2B6; [18]): 6.8 ± 0.8 µM | selectivity ratio at 40 min [7, 19]: 1.9 | Ki (human CYP2A6 [11]; [20]): 0.59 ± 0.05 µM | Ki (human CYP2A6 [11]; unit inferred): 0.59 ± 0.05 µM | IC50 (human CYP2A6 [11]): 3.5 ± 0.3 µM | selectivity ratio at 40 min [8, 21]: 8.9 | IC50 (CYP2E1; [22]): 31.1 ± 5.7 µM | IC50 (CYP2D6; [23]): 14.4 ± 0.9 µM | selectivity ratio at 40 min [10, 24]: 4.1

c1ccc(Cn2cnc(-c3cccnc3)c2)cc1 [Compound 60, 3-(1-benzyl-1H-imidazol-4-yl)pyridine]
IC50 (CYP2C9; [14]): 26.9 ± 2.9 µM | selectivity ratio at 40 min [4, 15]: 19 | selectivity ratio at 40 min [5, 16]: 9 | IC50 (CYP2C19; [17]): 12.1 ± 0.6 µM | selectivity ratio at 30 min [6]: > 54 | IC50 (CYP3A4; microsomes, pH 7.5): 75.1 ± 13.9 µM | IC50 (CYP2B6; [18]): 5.3 ± 0.9 µM | selectivity ratio at 40 min [7, 19]: 4 | Ki (human CYP2A6 [11]; [20]): 0.23 ± 0.03 µM | IC50 (human CYP2A6 [11]): 1.4 ± 0.2 µM | selectivity ratio at 40 min ([8]; human, pH 8): 0.4 | IC50 (CYP2E1; [22]): 0.58 ± 0.1 µM | IC50 (CYP2D6; [23]): 36.3 ± 4.4 µM | selectivity ratio at 40 min [10, 24]: 26

NCc1ccc(-c2cccnc2)o1 [Compound 39a, (5-(Pyridin-3-yl)furan-2-yl)methanamine]
IC50 (CYP2C9; [14]): 11.7 ± 2.2 µM | selectivity ratio at 40 min [4, 25]: 41 | selectivity ratio at 40 min ([4]; human, pH 8, human CYP2C9 versus human CYP2A6, read-out: Selectivity ratio (IC50 CYPX/IC50 CYP2A6) 2C9/2A6): 41 | selectivity ratio at 40 min ([5]; human, pH 8, 2C19/2A6 selectivity ratio (IC50 CYPX/IC50 CYP2A6)): 82 | selectivity ratio at 40 min ([5]; human, pH 8, human CYP2C19 versus human CYP2A6, read-out: Selectivity ratio (IC50 CYPX/IC50 CYP2A6) 2C19/2A6): 82 | IC50 (CYP2C19; [17]): 22 ± 1.6 µM | selectivity ratio at 30 min [6]: 174 | IC50 (CYP2B6; [18]): 191 ± 24 µM | selectivity ratio at 40 min [7, 26]: 707 | selectivity ratio at 40 min ([8]; human, recombinant CYP2E1 BACULOSOMES, pH 8, probe Vivid blue substrate (10 μM), O-dealkylation, read-out: 2E1/2A6 selectivity ratio (IC50 CYPX/IC50 CYP2A6)): 637 | IC50 (CYP2E1; [22]): 172 ± 52 µM | IC50 (human CYP2A6 [1]; human, pH 7.5): 0.27 ± 0.02 µM | Ki (human CYP2A6 [1]; human, pH 7.5): 0.04 ± 0.004 µM | binding type (P450 2A6dH [9]): type 2 | IC50 (CYP2D6; [23]): 11.3 ± 2.6 µM | selectivity ratio at 40 min ([10]; human, human CYP2D6 versus human CYP2A6, read-out: Selectivity ratio (IC50 CYPX/IC50 CYP2A6) 2D6/2A6): 41 | selectivity ratio at 40 min [10, 13]: 41

c1cncc(-c2ccc(CNCc3ccc(-c4cccnc4)s3)s2)c1 [Compound 38b, bis((5-(pyridin-3-yl)thiophen-2-yl)methyl)amine]
IC50 (CYP2C9; human, pH 8): 0.71 ± 0.75 µM | selectivity ratio [4, 25]: 0.1 | selectivity ratio ([4]; human, pH 8, Selectivity ratio (IC50 CYPX/IC50 CYP2A6) 2C9/2A6): 0.1 | selectivity ratio at 40 min [5, 12]: 0.03 | IC50 (CYP2C19; [17]): 0.21 ± 0.03 µM | selectivity ratio at 30 min [6]: > 54 | IC50 (CYP2B6; [18]): 9 ± 0.8 µM | selectivity ratio at 40 min [7, 26]: 1.2 | Ki (human CYP2A6 [11]; [20]): 1.2 ± 0.2 µM | IC50 (human CYP2A6 [11]): 7.4 ± 1.3 µM | fold decrease of CYP2A6 inhibitor potency (human CYP2A6 [11]; relative to compound 38a): 60 fold | selectivity ratio at 40 min [8, 21]: 0.12 | IC50 (CYP2E1; [22]): 0.86 ± 0.24 µM | IC50 (CYP2D6; [23]): 12.9 ± 1.9 µM | selectivity ratio at 40 min [10, 13]: 1.7
